This is an account of results in patent US5891882A, “Benzopyranopyrrole and benzopyranopyridine α-1 adenergic compounds” (priority 1997, dated 1999).

Where a name gives a salt, the structure may show the parent alone.

In the first experiment the target is T1, α-1A adrenoreceptor (canine prostate smooth muscle) (Canis lupus, UniProt A0A8I3NK63).
T1 construct: antagonism of phenylephrine-induced contraction (pA2, Schild)
T1 sequence (A0A8I3NK63 1-466): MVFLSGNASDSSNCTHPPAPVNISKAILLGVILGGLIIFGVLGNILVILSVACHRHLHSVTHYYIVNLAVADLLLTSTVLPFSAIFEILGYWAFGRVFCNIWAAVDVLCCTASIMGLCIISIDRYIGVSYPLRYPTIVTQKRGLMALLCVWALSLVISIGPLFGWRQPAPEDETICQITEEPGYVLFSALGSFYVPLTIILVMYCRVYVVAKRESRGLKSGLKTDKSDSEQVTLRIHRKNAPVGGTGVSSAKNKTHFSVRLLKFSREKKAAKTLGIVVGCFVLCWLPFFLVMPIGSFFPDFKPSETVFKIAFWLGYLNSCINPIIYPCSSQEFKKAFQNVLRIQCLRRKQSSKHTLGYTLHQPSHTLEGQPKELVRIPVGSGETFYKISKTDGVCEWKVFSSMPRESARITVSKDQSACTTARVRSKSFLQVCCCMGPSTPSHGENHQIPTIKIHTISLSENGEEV
Nature of the experiment: Functional antagonism: inhibition of phenylephrine-induced contraction of canine prostate strips. The class given is cell-based. The settings on record: Schild plot. The text has this: Canine prostate strips were used in vitro as previously described (Hieble, J. P., Boyce, Caine, M., Fed Proc., 45: 2609-2614 (1986)), to determine antagonist potencies phenylephrine-induced contractions.
(§1) Functional assays indicative of pharmacologically defined α-1 adrenoreceptors were used to further characterize compounds. Inhibition of phenylephrine (PE)-induced contraction of canine prostate smooth muscle can be correlated with α-1A adrenoreceptor activation. […] For each of these models, agonist dose response curves were repeated against increasing concentrations of test agent to derive a Schild plot [log ([…]) against log (molarity of test agent)] to determine the pA2.
Canine prostate strips were used in vitro as previously described (Hieble, J. P., Boyce, A. J. and Caine, M., Fed. Proc., 45: 2609-2614 (1986)), to determine antagonist potencies against phenylephrine-induced contractions.
With `COc1ccc2c(c1)OC[C@H]1CN(CCn3c(=O)[nH]c4c(sc5ccccc54)c3=O)C[C@@H]21.Cl` (racemic) [Example 63, 3-[2-((±)-cis-7-Methoxy-1,2,3,3a,4,9b-hexahydro-[1]-benzopyrano[3,4-c]pyrrol-2-yl)ethyl]-[1]benzthieno[3,2-d]pyrimidine-2,4(1H,3H)-dione hydrochloride], the “In Vitro Characterization (pA2) Dog Prostate” value (shortened to “In Vitro Characterization”) was 6.65.

`COc1ccc2c(c1)OC[C@H]1CN(CCCn3c(=O)[nH]c4c(sc5ccccc54)c3=O)C[C@@H]21.Cl` (racemic) [Example 64]: the “In Vitro Characterization” value was 6.92. On the same count and under the same terms, then `COc1cccc2c1[C@@H]1CN(CCn3c(=O)[nH]c4c(sc5ccccc54)c3=O)C[C@@H]1CO2.Cl` (racemic) [Example 65, 3-[2-((±)-cis-9-Methoxy-1,2,3,3a,4,9b-hexahydro-[1]-benzopyrano[3,4-c]pyrrol-2-yl)ethyl]-[1]-benzthieno[3,2-d]pyrimidine-2,4(1H,3H)-dione hydrochloride], with 7.76. For the compound `COc1cccc2c1[C@@H]1CN(CCCn3c(=O)[nH]c4c(sc5ccccc54)c3=O)C[C@@H]1CO2.Cl` (racemic) [Example 66, 3-[3-((±)-cis-9-Methoxy-1,2,3,3a,4,9b-hexahydro-[1]-benzopyrano[3,4-c]pyrrol-2-yl)propyl]-[1]-benzthieno[3,2-d]pyrimidine-2,4(1H,3H)-dione hydrochloride], the “In Vitro Characterization” value is given as 7.48. `COc1cccc2c1OC[C@H]1CN(CCCn3c(=O)[nH]c4c(sc5ccccc54)c3=O)C[C@@H]21.Cl` (racemic) [Example 68, 3-[3-((±)-cis-6-Methoxy-1,2,3,3a,4,9b-hexahydro-[1]-benzopyrano[3,4-c]pyrrol-2-yl)propyl]-[1]-benzthieno[3,2-d]pyrimidine-2,4(1H,3H)-dione hydrochloride]: the “In Vitro Characterization” value came to 7.02. With `Cl.O=c1[nH]c2c(sc3ccccc32)c(=O)n1CCN1C[C@@H]2COc3ccccc3[C@@H]2C1` (racemic) [Example 69, 3-[2-((±)-cis-1,2,3,3a,4,9b-hexahydro-[1]-benzopyrano[3,4-c]pyrrol-2-yl)ethyl]-[1]-benzthieno[3,2-d]pyrimidine-2,4(1H,3H)-dione hydrochloride], the “In Vitro Characterization” value worked out at 6.91. The same measure, in the same setting: then `COc1cccc2c1[C@H]1CN(CCCCn3c(=O)[nH]c4c(sc5nccnc54)c3=O)C[C@@H]1CO2.Cl.Cl` (racemic) [Example 74, 3-[4-((±)-trans-9-Methoxy-1,2,3,3a,4,9b-hexahydro-[1]-benzopyrano[3,4-c]pyrrol-2-yl)butyl]-pyrazino[2',3':4,5]thieno[3,2-d]pyrimidine-2,4(1H,3H)-dione dihydrochloride], with 9.03; and `COc1cccc2c1[C@@H]1CCN(CCCCn3c(=O)[nH]c4c(sc5ncccc54)c3=O)C[C@H]1CO2` (relative stereo) [Example 85, 3-[4-((±)-trans-10-Methoxy-1,3,4,4a,5,10b-hexahydro-2H-[1]-benzopyrano[3,4-c]pyrido-3-yl)butyl]-pyrido[3',2':4,5]thieno[3,2-d]pyrimidine-2,4(1H,3H)-dione dihydrochloride], with 8.6; and `COc1cccc2c1[C@@H]1CN(CCCCn3c(=O)[nH]c4c(sc5cccnc54)c3=O)C[C@@H]1CO2` [Example 1, 3-[4-((3aR,9bR)-cis-9-Methoxy-1,2,3,3a,4,9b-hexahydro-[1]-benzopyrano[3,4-c]pyrrol-2-yl)butyl]-pyrido[2',3':4,5]thieno[3,2-d]pyrimidine-2,4(1H,3H)-dione hydrochloride], with 8.69.

The target in a further experiment is T2, α-1 Adrenoceptors (Rat Aorta) (Rattus norvegicus, UniProt P23944).
T2 construct: Rat Aorta; from tissue; host or cells: rat aorta
T2 sequence (P23944 1-561): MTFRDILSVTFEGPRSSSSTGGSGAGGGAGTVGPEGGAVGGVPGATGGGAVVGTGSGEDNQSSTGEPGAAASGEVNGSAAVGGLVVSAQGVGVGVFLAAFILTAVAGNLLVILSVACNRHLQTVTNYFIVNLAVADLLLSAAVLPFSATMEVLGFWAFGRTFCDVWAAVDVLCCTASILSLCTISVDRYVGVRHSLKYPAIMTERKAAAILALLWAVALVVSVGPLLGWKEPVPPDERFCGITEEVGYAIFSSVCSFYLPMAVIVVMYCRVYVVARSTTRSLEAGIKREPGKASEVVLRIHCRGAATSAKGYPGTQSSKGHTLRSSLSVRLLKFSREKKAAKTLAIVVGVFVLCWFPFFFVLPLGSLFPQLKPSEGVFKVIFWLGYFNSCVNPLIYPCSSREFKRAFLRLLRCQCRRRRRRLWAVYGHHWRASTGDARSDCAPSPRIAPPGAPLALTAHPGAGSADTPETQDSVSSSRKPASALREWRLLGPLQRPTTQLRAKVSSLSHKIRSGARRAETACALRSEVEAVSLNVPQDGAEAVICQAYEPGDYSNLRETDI
Nature of the experiment: Functional antagonism at α-1 adrenoceptors, rat aorta. The class given is cell-based. The conditions noted are these: read-out: In Vitro Characterization (pA2) Rat Aorta (converted).
Description: as §1
Take `COc1cccc2c1[C@@H]1CN(CCCCn3c(=O)[nH]c4c(sc5c(OC)ccnc54)c3=O)C[C@H]1CO2` [Example 17, 3-[4-((3aS,9bR)-trans-9-Methoxy-1,2,3,3a,4,9b-hexahydro-[1]-benzopyrano[3,4-c]pyrrol-2-yl)butyl]-6-methoxy-pyrido[2',3':4,51thieno[3,2-d]pyrimidine-2,4(1H,3H)-dione dihydrochloride]: the Kb is 0.631 nM. Same read-out and setting: then `COc1cccc2c1[C@@H]1CN(CCCCn3c(=O)[nH]c4c(sc5c(OC)ccnc54)c3=O)C[C@@H]1CO2` [Example 18, 3-[4-((3aR,9bR)-cis-9-Methoxy-1,2,3,3a,4,9b-hexahydro-[1]-benzopyrano[3.4-c]pyrrol-2-yl)butyl]-6-methoxy-pyrido[2',3':4,51thieno[3,2-d]pyrimidine-2,4(1H,3H)-dione dihydrochloride], with 0.457 nM. In the case of `COc1cccc2c1[C@@H]1CN(CCCCn3c(=O)[nH]c4c(sc5ccc(Cl)nc54)c3=O)C[C@H]1CO2` [Example 25, 3-[4-((3aS,9bR)-trans-9-Methoxy-1,2,3,3a,4,9b-hexahydro-[1]-benzopyrano[3,4-c]pyrrol-2-yl)butyl]-8-chloro-pyrido[2',3':4,5]thieno[3,2-d]pyrimidine-2,4(1H,3H)-dione dihydrochloride], the Kb is 0.0138 nM. With `COc1cccc2c1[C@@H]1CN(CCCCn3c(=O)[nH]c4c(sc5cnccc54)c3=O)C[C@@H]1CO2` [Example 29, 3-[4-((3aR,9bR)-cis-9-Methoxy-1,2,3,3a,4,9b-hexahydro-[1]-benzopyrano[3,4-c]pyrrol-2-yl)butyl]-pyrido[4',3':4,5]thieno[3,2-d]pyrimidine-2,4(1H,3H)-dione hydrochloride], the Kb is 0.501 nM. In the case of `COc1cnc2sc3c(=O)n(CCCCN4C[C@@H]5COc6cccc(OC)c6[C@@H]5C4)c(=O)[nH]c3c2n1` [Example 31, hydrochloride], the Kb is 0.794 nM.

`COc1cccc2c1[C@@H]1CN(CCCCn3c(=O)[nH]c4c(sc5nc(C)ccc54)c3=O)C[C@@H]1CO2` [Example 35, hydrochloride]: the Kb was 0.741 nM. In the case of `COc1cccc2c1[C@@H]1CN(CCCCn3c(=O)[nH]c4c(sc5nccc(OC)c54)c3=O)C[C@@H]1CO2` [Example 36, 3-[4-((3aR,9bR)-cis-9-Methoxy-1,2,3,3a,4,9b-hexahydro-[1]-benzopyrano[3,4-c]pyrrol-2-yl)butyl]-9-methoxy-pyrido[2',3':4,5]thieno[3,2-d]pyrimidine-2,4(1H,3H)-dione hydrochloride], the Kb is 0.372 nM. With `COc1cccc2c1[C@@H]1CN(CCCCn3c(=O)[nH]c4c(sc5ccc(Cl)nc54)c3=O)C[C@@H]1CO2` [Example 37, 3-[4((3aR,9bR)-cis-9-Methoxy-1,2,3,3a,4,9b-hexahydro-[1]-benzopyrano[3,4-c]pyrrol-2-yl)butyl]-8-chloro-pyrido[2',3':4,5]thieno[3,2-d]pyrimidine-2,4(1H,3H)-dione hydrochloride], the Kb was 0.229 nM.

For `COc1cccc2c1[C@@H]1CN(CCCCn3c(=O)[nH]c4c(sc5cc(Cl)cnc54)c3=O)C[C@@H]1CO2` [Example 38, 3-[4((3aR,9bR)-cis-9-Methoxy-1,2,3,3a,4,9b-hexahydro-[1]-benzopyrano[3,4-c]pyrrol-2-yl)butyl]-7-chloro-pyrido[2',3':4,5]thieno[3,2-d]pyrimidine-2,4(1H,3H)-dione hydrochloride], the Kb was 1.15 nM.

On to `COc1cccc2c1[C@@H]1CN(CCCCn3c(=O)[nH]c4c(sc5nc(-c6ccccc6)cnc54)c3=O)C[C@@H]1CO2` [Example 40, 3-[4-((3aR,9bR)-cis-9-Methoxy-1,2,3,3a,4,9b-hexahydro-[1]-benzopyrano[3,4-c]pyrrol-2-yl)butyl]-7-phenyl-pyrazino[2',3':4,5]thieno[3,2-d]pyrimidine-2,4(1H,3H)-dione hydrochloride], for which the Kb is 4.47 nM. As to `COc1cccc2c1[C@@H]1CN(CCCCn3c(=O)[nH]c4c(sc5ccc(OC(C)C)nc54)c3=O)C[C@H]1CO2` [Example 51, 3-[4-((3aS,9bR)-trans-9-Methoxy-1,2,3,3a,4,9b-hexahydro-[1]-benzopyrano[3,4-c]pyrrol-2-yl)butyl]-8-isopropoxy-pyrido[2',3':4,5]thieno[3,2-d]pyrimidine-2,4(1H,3H)-dione hydrochloride], the Kb was 0.182 nM.
